Reference: US20250127176A1 (priority 2021, published 2025)
Read-outs that look alike come from different tables or passages of the source.

Key:
[1] = tested on: late blight of potato (Phytophthora infestans); assay type: in vivo
late blight of potato = assay type: in vivo, Phytophthora infestans; settings: T4: foliar spray, 7 days interval; 0.8 ml/L
[2] = T3: foliar spray 30, 45, 60 and 75th day, dose 2.0 mL/Litre
[3] = T4: foliar spray 30, 45, 60 and 75th day, dose 2 g/lit
[4] = T5: foliar spray 45th day only, dose 2 g/lit

Compound	Per cent Disease Index (PDI) [1, 2] [%]	Per cent reduction over control [1, 2] [%]	Per cent Disease Index (PDI) (late blight of potato) [%]	Per cent reduction over control (late blight of potato) [%]	Per cent Disease Index (PDI) [1, 3] [%]	Per cent reduction over control [1, 3] [%]	Per cent Disease Index (PDI) [1, 4] [%]	Per cent reduction over control [1, 4] [%]
C#CCOc1ccc(CCNC(=O)C(OCC#C)c2ccc(Cl)cc2)cc1OC (centres unmarked) [Mandipropamid]	12.5	86.7	14.11	83.40				
Mancozeb					15.6	83.4	45.2	51.9
